One compound from patent publication US4778796A, “ω-(3-pyridyl)alkenamide derivatives and anti-allergenic pharmaceutical compositions containing same” (Dainippon Pharmaceutical Co., Ltd., priority 1985, dated 1988) can be followed below.

Molecules are shown by their SMILES. Like-named read-outs stand apart in the source and are kept apart here.

As a reminder, the ED50 is the dose that gives a 50% effect, or the effect in half of the subjects. As usually defined, the LD50 is the dose expected to kill half of the subjects tested. As a reminder, the IC50 is the point on the concentration scale where inhibition reaches its midpoint.

Series [1] has as its system experimental asthma. In words: Inhibitory effect on experimental asthma in rats. Format: in vivo, rat (male Wistar). Conditions: Rattus norvegicus, po, 1 hour before antigen challenge. How it is done:
(2) Inhibitory effect on experimental asthma in rats: This test was carried out by the method of Church and Miller [cf. Brit. […] Male Wistar rats (200-250 g) were sensitized by an intraperitoneal injection of 1 ml of a 0.01% egg albumin solution containing 1 mg of Al(OH)3. Two weeks later, the rats were anesthetized with 1.3 g/kg of urethane. The trachea and jugular vein were cannulated. Respiratory volume and velocity were measured by attaching one end of the tracheal cannula to respiratory volume meter connected to a carrier amplifier and an integrator. The rats were challenged by an intravenous injection of 4 mg/kg of egg ablumin 30 minutes after the anesthesia. Test compounds, dissolved or suspended in a 0.5% aqueous tragacanth solution, were administered orally 1 hour before the antigen challenge. Each group of 4 rats was used for each dose of the test compound. ED50 values were calculated from the best fit linear regression line of inhibitory rates of respiratory volume and velocity in each dose.

Series [2] in a line: Acute lethal toxicity in mice. Conditions: mouse, in vivo; oral, mortality observed for two weeks. How it is done: Test 3 Acute lethal toxicity in mice
Test compounds were suspended in a 0.5% aqueous tragacanth solution. LD50 values were calculated according to the method of Litchfield and Wilcoxon [cf. J. Pharmacol. Exp. Ther., 96, 99 (1949)].

The test system of series [3] is human basophils. In words: Inhibitory effect on histamine release induced by anti-human IgE antibody from healthy human basophils. It is filed as cell-based. How it is done: (3) Inhibitory effect on histamine release induced by anti-human IgE antibody from healthy human basophils:
Basophils from nonallergic volunteers were collected by the method of Levy and Osler [cf. […] The cells were washed once with a cold Tris-A buffer at pH 7.4 (25 mM Tris, 120 mM NaCl, 5 mM KCl and 0.03% human serum albumin) containing 4 mM EDTA and twice with Tris-A buffer. After washing, the cells were resuspended at 5-10×10^6 leukocytes/ml in Tris-ACM buffer at pH 7.6 (Tris-A buffer, 0.6 mM CaCl2 and 1 mM MgCl2). One ml of the cell suspension was incubated with 0.1 ml of a solution of test compound or vehicle for 15 minutes at 37° C., and then for further 45 minutes with 0.1 ml of anti-human IgE antibody. After ice-cooling, the reaction mixtures were centrifuged at 1,200 rpm for 8 minutes at 4° C. The supernatant fluids and the cells were analysed separately for histamine by a modification of the spectrophotofluorometric technique of Shore et al. [cf. […] Histamine release rate was calculated according to the following equation. [formula] A: total histamine (supernatant+cell) B: supernatant histamine without anti-IgE
C: supernatant histamine with anti-IgE
Inhibitory rate was calculated from histamine release rates without vs. with test compound.

In series [4] the test system is passive cutaneous anaphylaxis (PCA). The series is described as follows: Inhibitory effect on passive cutaneous anaphylaxis (PCA) in rats. Particulars: Rattus norvegicus; 20 mg/kg, oral, 1 hour before antigen challenge; read-out: Inhibition (PCA in rats). Format: in vivo, rat (male Wistar). As to the method: (1) Inhibitory effect on passive cutaneous anaphylaxis (PCA) in rats:
This test was carried out by the method of Perper et al. [cf.
Male Wistar rats (130-180 g) were injected with 0.1 ml of a dilute solution of mouse antiserum to egg albumin in two sites of the shaved ventral skin. Forty-eight hours later each rat was challenged by an intravenous injection of 2 mg of the antigen together with 1 ml of a 0.5% Evan's blue saline solution. The rats were sacrificed 30 minutes after the challenge. The area of the blueing lesions was measured on the undersurface of the skin. The average value of the two lesions of each rat was regarded as the response of the rat. Test compounds in a dose of 20 mg/kg, dissolved or suspended in a 0.5% aqueous tragacanth solution, were administered orally 1 hour before the antigen challenge. The inhibitory rate was determined by comparing the responses of the rats given each test compound with those of the rats given only a 0.5% aqueous tragacanth solution. Each group of 3 rats was used for each test compound. The mouse antiserum to egg albumin was produced by the method of Levine and Vaz [cf. Int. Arch. Allergy Appl.

For `Cc1ccc(C=CC(=O)NCCCCN2CCN(C(c3ccccc3)c3ccccc3)CC2)cn1` [Example 2, N-[3-(6-methyl-3-pyridyl)acryloyl]-4-(4-diphenylmethyl-1-piperazinyl)butylamine], the ED50 in series [1] (respiratory velocity, read-out: ED50, respiratory velocity) is 5.5 mg/kg; in series [1] (respiratory volume, read-out: ED50, respiratory volume) it was 14.4 mg/kg. In series [2], this compound had an LD50 at 336 h of 601 mg/kg. For the same compound, in series [3] (anti-human IgE antibody, human basophils, read-out: Histamine release inhibit. IC50), the IC50 was 34 µM. Also, the “ability to inhibit histamine release (in words)” value in series [3] (compared with ketotifen fumarate) is given as “superior to ketotifen fumarate in the ability to inhibit histamine release”. Further, the inhibition in vivo at 20 mg/kg in series [4] is 81.9%.
